# According to PubChem BioAssay (NCI):
# “And” between values parts separate entries of the source, which are not always exact repeats. Equal values may be shown once.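 Following 48 hours of exposure in 96-well plates, responses at five concentrations were used to interpolate endpoints linearly. GI50: concentration for 50% inhibition of growth. At the TGI there is no net growth.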
# Legend:
# Experiment in all cases: growth of human tumour cells (NCI), 48 h
# EKVX NSCLC = tested on: EKVX NSCLC
# SW-620 colon = tested on: SW-620 colon
# NCI-H522 lung = tested on: NCI-H522 lung
# BT-549 breast = tested on: BT-549 breast
# K-562 leukemia = tested on: K-562 leukemia
# SN12C renal = tested on: SN12C renal
# HOP-92 NSCLC = tested on: HOP-92 NSCLC
# SF-539 CNS = tested on: SF-539 CNS
# MCF7 breast = tested on: MCF7 breast
# OVCAR-5 ovarian = tested on: OVCAR-5 ovarian
Compound,TGI (EKVX NSCLC) [µM],TGI (SW-620 colon) [µM],TGI (NCI-H522 lung),TGI (BT-549 breast) [µM],TGI (K-562 leukemia) [µM],TGI (SN12C renal),TGI (HOP-92 NSCLC),TGI (SF-539 CNS),TGI (MCF7 breast) [µM],TGI (OVCAR-5 ovarian) [µM],GI50 (SW-620 colon) [µM],GI50 (NCI-H522 lung) [µM],GI50 (BT-549 breast) [µM],GI50 (K-562 leukemia) [µM],GI50 (SN12C renal) [µM],GI50 (SF-539 CNS) [µM],GI50 (MCF7 breast) [µM],GI50 (OVCAR-5 ovarian) [µM],GI50 (EKVX NSCLC) [µM],GI50 (HOP-92 NSCLC) [µM]
C=CC1(C)CCC2C(=CCC3C2(C)CC(O)C(O)C3(C)COC2OC(CO)C(O)C(O)C2O)C1 (stereo not given),> 100,> 100,> 100 µM,> 100,> 100,> 100 µM,> 100 µM,> 100 µM,> 100,> 100,–,–,–,–,–,–,–,–,–,–
Nc1c(C(=O)Nc2cccc(Cl)c2)sc2nc3c(cc12)C(=O)CCC3,> 100,> 100,0.788 µM,> 100,> 100,> 100 µM,> 100 µM,> 100 µM,> 100,> 100,0.351,0.19,0.948,0.101,0.836,0.586,0.201,2.09,–,–
C=CCC1(O)c2ccccc2C(=O)c2c(OCC(=O)OCC)ccc(OCC(=O)OCC)c21 (stereo not given),> 100,> 100,> 100 µM,> 100,> 100,> 100 µM,> 100 µM,> 100 µM,> 100,> 100,> 100,> 100,> 100,> 100,87.6,> 100,> 100,> 100,> 100,41.9
O=c1[nH]c2ccccc2n1C1CCNCC1,> 100,> 100,> 100 µM,> 100,> 100,> 100 µM,–,> 100 µM,> 100,> 100,> 100,> 100,> 100,> 100,> 100,> 100,> 100,> 100,> 100,–
CC[C@@]1(OP(=O)(O)O)C(=O)OCc2c1cc1n(c2=O)Cc2cc3ccccc3nc2-1,> 100,9.44,3 µM and 1.88 µM,4.55,> 100,6.08 µM and 0.619 µM,2.7 µM and 6.46 µM,0.537 µM and 0.373 µM,1.55,–,–,0.0688,–,0.572,0.024,0.0472,–,0.553,2.13,1.24
C[N+]1([O-])C2CCC1CC(OC(=O)C(CO)c1ccccc1)C2 (stereo not given),> 100,> 100,> 100 µM,> 100,> 100,> 100 µM,> 100 µM,> 100 µM,> 100,> 100,–,–,–,–,–,–,–,–,–,–
CC(=O)OCC1C(=O)OCC1C(=O)N1Cc2cc3ccccc3nc2C1 (stereo not given),17.3,1.68,2.23 µM,6.71,9.76,14.4 µM,3.77 µM,17.8 µM,3.14,15.8,–,–,–,–,–,–,–,–,–,–
Cc1ccc(N)c(S)c1,31.5,38.7,33.5 µM,36.4,65.1,7.83 µM,30.2 µM,31.3 µM,38.8,42,–,–,–,–,–,–,–,–,–,–
O=C(CCCc1ccc(N(CCCl)CCCl)cc1)NCc1ccccc1,91.5,73.4,24.5 µM,27.2,54.3,> 100 µM,–,73.8 µM,> 100,> 100,6.4,6.42,3.86,7.43,4.41,17.8,3.08,33.1,21.6,–
CCN1CCN(CCC(=O)Nc2cccc(-n3cc(-c4ccncc4)c(-c4ccc(Cl)c(OC)c4)n3)c2)CC1,4.76,1.5,1.19 µM,4.43,–,2.88 µM,6.43 µM,1.47 µM,1.45,4.84,0.338,0.275,1.38,–,0.623,0.362,0.267,1.42,1.06,0.776
CC(C)=CCc1cc2c(cc1O)C1=C(C(=O)C3=C(NCCS3(=O)=O)C1=O)C(C=C(C)C)O2 (stereo not given),> 16.7,> 16.7,9.09 µM,> 16.7,> 16.7,5.69 µM,> 16.7 µM,12.9 µM,7.84,> 16.7,5,2.93,14.1,5.02,2.78,4.22,2.86,> 16.7,6.24,6.89
Sc1cccc2cccnc12,12.9,16.2,5.66 µM,12.4,> 52,15.1 µM,20.5 µM,12.9 µM,11.6,17.7,1.07,2.13,1.46,0.385,1.14,0.776,0.484,4.1,1.31,7.11
COC(=O)[C@@H](C)C[C@H](Cc1ccccc1)NC(=O)c1nc([C@@H](C[C@H](C(C)C)N(C)C(=O)[C@@H](NC(=O)[C@H]2C[C@H](O)CCN2C)C(C)C)OC(C)=O)sc1C(C)C,> 11.1,> 11.1,–,0.131,> 11.1,3.3 µM,7.05 µM,0.0505 µM,> 11.1,> 11.1,0.00533,0.00186,0.00416,0.00267,0.00671,0.0159,< 0.00111,0.0428,0.161,0.00491
O=C1NC(=O)C(c2c[nH]c3ccccc23)=C1c1c[nH]c2ccccc12,–,> 25,> 25 µM,> 25,> 25,> 25 µM,> 25 µM,> 25 µM,> 25,> 25,13.3,8.11,10.3,11.1,16.3,9.73,9.32,> 25,–,5.72
